Holding throughout (format): biochemical
Common to all, as to settings: luminometer

One test deals with T1, TNIK (Homo sapiens, UniProt Q9UKE5).
T1 construct: purchased Promega V4158
The test can be described thus: TNIK inhibition, ADP-Glo Kinase Assay. How it is done: Inhibition activities on TNIK, IKKε and TBK1 were evaluated using the compounds of Examples 1 to 254.
The inhibition activities on TNIK, IKKε and TBK1 were measured by a luminometer, TNIK/IKKε/TBK1 Kinase Enzyme System (Promega, Ca# V4158; Invitrogen, PR8031B, Promega, Ca# V3991) and ADP-Glo Kinase Assay using ADP-Glo™ Kinase Analysis Kit (Promega, Ca# V9101) and a kinase reaction buffer [40 mM Tris(pH 7.5), 20 mM MgCl2, 0.1 mg/mL BSA] in accordance with the manufacturer's protocol.
Background: In ADP-Glo the light output rises with the ADP produced.

The next test deals with T2, TBK1 (Homo sapiens, UniProt Q9UHD2).
T2 construct: purchased Promega V3991
T2 sequence (Q9UHD2 1-729): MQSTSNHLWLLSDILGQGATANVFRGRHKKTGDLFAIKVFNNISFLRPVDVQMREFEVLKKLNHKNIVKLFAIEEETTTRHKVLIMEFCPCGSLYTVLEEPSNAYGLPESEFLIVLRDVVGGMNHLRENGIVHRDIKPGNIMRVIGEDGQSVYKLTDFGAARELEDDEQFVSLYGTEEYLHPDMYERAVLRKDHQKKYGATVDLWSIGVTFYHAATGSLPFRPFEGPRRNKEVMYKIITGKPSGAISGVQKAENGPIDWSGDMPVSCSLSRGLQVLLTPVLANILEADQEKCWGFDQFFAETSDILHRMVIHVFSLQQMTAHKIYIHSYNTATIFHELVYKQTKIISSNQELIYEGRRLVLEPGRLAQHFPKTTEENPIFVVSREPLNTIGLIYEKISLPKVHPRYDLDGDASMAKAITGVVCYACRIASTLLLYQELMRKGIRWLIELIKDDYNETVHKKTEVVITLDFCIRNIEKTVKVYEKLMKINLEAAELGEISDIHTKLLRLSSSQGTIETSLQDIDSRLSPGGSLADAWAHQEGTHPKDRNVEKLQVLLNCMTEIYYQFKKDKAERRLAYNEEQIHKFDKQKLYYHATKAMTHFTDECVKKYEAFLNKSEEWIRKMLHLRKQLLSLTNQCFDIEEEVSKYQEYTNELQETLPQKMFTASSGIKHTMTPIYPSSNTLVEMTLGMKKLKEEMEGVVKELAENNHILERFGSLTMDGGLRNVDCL
The test can be described thus: TBK1 inhibition, ADP-Glo Kinase Assay. The procedure, abridged: (§1)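 ADP-Glo luminescence reported ADP produced by each kinase, following the kit protocol. Reactions used commercial kinase enzyme systems in buffer of 40 mM Tris (pH 7.5), 20 mM MgCl2 and 0.1 mg/mL BSA.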

The next test addresses T3, IKKε (Homo sapiens, UniProt Q14164).
T3 construct: purchased Invitrogen PR8031B
T3 sequence (Q14164 1-716): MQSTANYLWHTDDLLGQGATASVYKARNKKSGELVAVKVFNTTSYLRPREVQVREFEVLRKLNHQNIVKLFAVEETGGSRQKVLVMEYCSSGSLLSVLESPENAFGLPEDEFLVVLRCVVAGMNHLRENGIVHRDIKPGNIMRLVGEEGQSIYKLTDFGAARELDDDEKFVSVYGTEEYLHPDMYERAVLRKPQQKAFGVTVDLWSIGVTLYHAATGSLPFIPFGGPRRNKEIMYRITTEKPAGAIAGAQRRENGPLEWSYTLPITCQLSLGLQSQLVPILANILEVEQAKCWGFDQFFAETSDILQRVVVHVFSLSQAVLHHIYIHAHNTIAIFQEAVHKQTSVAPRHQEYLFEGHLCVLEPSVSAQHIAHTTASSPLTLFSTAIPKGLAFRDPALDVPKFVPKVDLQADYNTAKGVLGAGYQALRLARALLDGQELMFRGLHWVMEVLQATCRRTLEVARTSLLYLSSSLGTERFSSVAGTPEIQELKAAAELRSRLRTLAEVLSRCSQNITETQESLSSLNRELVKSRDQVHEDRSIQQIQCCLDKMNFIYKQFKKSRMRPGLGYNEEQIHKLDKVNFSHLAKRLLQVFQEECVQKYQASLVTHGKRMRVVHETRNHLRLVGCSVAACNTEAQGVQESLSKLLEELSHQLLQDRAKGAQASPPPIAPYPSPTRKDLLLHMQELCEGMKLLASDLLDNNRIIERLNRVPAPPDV
The test is described as follows: IKKε inhibition, ADP-Glo Kinase Assay. The procedure, abridged: as §1

T1 sequence (Q9UKE5 1-367 limits assumed): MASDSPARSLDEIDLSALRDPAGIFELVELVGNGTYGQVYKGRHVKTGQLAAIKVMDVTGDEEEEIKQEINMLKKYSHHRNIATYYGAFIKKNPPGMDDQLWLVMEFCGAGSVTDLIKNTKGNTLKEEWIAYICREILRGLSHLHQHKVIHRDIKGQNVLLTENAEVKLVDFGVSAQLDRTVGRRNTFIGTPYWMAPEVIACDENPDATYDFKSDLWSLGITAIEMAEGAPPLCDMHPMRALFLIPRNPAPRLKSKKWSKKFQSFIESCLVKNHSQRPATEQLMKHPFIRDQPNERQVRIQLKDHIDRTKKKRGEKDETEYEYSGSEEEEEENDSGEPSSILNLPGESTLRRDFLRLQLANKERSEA

A word on the IC50: it is the concentration that gives 50% inhibition. Lower therefore signals greater potency. On to `CCc1cnc(-c2cc3[nH]nc(-c4ccc(N5CCOCC5)cc4)c3s2)o1` [Example 244, 4-(4-(5-(5-ethyloxazol-2-yl)-1H-thieno[3,2-c]pyrazol-3-yl)phenyl)morpholine], for which the IC50 against TNIK is 1.01 µM. At TNIK, `Cc1cnc(-c2cc3[nH]nc(NC(=O)c4ccc(N5CCOCC5)cc4)c3s2)o1` [Example 218, N-(5-(5-methyloxazol-2-yl)-1H-thieno[3,2-c]pyrazol-3-yl)-4-morpholinobenzamide] came in with an IC50 of 0.048 µM. Consider `COCCNc1ccc(C(=O)Nc2n[nH]c3cc(-c4ncc(C)o4)sc23)cc1` [Example 229, 4-((2-methoxyethyl)amino)-N-(5-(5-methyloxazol-2-yl)-1H-thieno[3,2-c]pyrazol-3-yl)benzamide], for which the values for the IC50 against TNIK and on TBK1 were 0.15 µM and 0.14 µM, respectively. For `Cc1cnc(-c2cc3[nH]nc(NC(=O)c4ccc(N5CCOCC5)cc4)c3s2)s1` [Example 219, N-(5-(5-methylthiazol-2-yl)-1H-thieno[3,2-c]pyrazol-3-yl)-4-morpholinobenzamide], in that order: 0.13 µM and 0.33 µM. For `Cc1cnc(-c2cc3[nH]nc(NC(=O)c4ccc(N(C)C)cc4)c3s2)s1` [Example 251, 4-(dimethylamino)-N-(5-(5-methylthiazol-2-yl)-1H-thieno[3,2-c]pyrazol-3-yl)benzamide], in that order: 0.25 µM and 1.4 µM. In the same order, the values of `Cc1cnc(-c2cc3[nH]nc(NC(=O)c4cccc(F)c4)c3s2)o1` [Example 230, 3-fluoro-N-(5-(5-methyloxazol-2-yl)-1H-thieno[3,2-c]pyrazol-3-yl)benzamide] are 0.66 µM and 1.7 µM. As for `COC(=O)c1cc2[nH]nc(-c3ccccc3)c2s1` [Example 236, methyl 3-phenyl-1H-thieno[3,2-c]pyrazole-5-carboxylate], the 50% inhibitory concentration (IC50) at TNIK is 1.27 µM; against TBK1, greater than 10 µM. For `Cc1cnc(-c2cc3[nH]nc(NC(=O)c4ccc(N(C)C)cc4)c3s2)o1` [Example 223, 4-(dimethylamino)-N-(5-(5-methyloxazol-2-yl)-1H-thieno[3,2-c]pyrazol-3-yl)benzamide], in that order: 0.11 µM and 0.094 µM. In the case of `COC(=O)c1cc2[nH]nc(-c3ccc(N(C)C)cc3)c2s1` [Example 234, methyl 3-(4-(dimethylamino)phenyl)-1H-thieno[3,2-c]pyrazole-5-carboxylate], on TNIK, the “TNIK (μM), inhibition activity” value is on record as “insoluble”. As to `COC(=O)c1cc2[nH]nc(-c3ccc(F)cc3)c2s1` [Example 239, methyl 3-(4-fluorophenyl)-1H-thieno[3,2-c]pyrazole-5-carboxylate], the IC50 was 0.86 µM on TNIK and greater than 10 µM on TBK1. Consider `Cc1cnc(-c2cc3[nH]nc(-c4ccc(F)cc4)c3s2)o1` [Example 246, 2-(3-(4-fluorophenyl)-1H-thieno[3,2-c]pyrazol-5-yl)-5-methyloxazole], for which, at TNIK, the IC50 was determined as 0.5 µM. In the case of `COc1ccc(-c2n[nH]c3cc(-c4ncc(C)o4)sc23)cc1` [Example 235, 2-(3-(4-methoxyphenyl)-1H-thieno[3,2-c]pyrazol-5-yl)-5-methyloxazole], the IC50 against TNIK was 0.34 µM; against TBK1 it was greater than 10 µM.

Regarding `COC(=O)c1cc2[nH]nc(-c3ccc(NC(C)=O)cc3)c2s1` [Example 245, methyl 3-(4-acetamidophenyl)-1H-thieno[3,2-c]pyrazole-5-carboxylate], on TNIK, the IC50 worked out at 0.16 µM. Still for that read-out and setting: the result for `Cc1cnc(-c2cc3[nH]nc(-c4ccc(OCCN5CCOCC5)cc4)c3s2)o1` [Example 250, 4-(2-(4-(5-(5-methyloxazol-2-yl)-1H-thieno[3,2-c]pyrazol-3-yl)phenoxy)ethyl)morpholine] reads 0.11 µM; that for `CCNC(=O)c1cc2[nH]nc(-c3ccc(N(C)C)cc3)c2s1` [Example 237, 3-(4-(dimethylamino)phenyl)-N-ethyl-1H-thieno[3,2-c]pyrazole-5-carboxamide], 1.79 µM; that for `CCNC(=O)c1cc2[nH]nc(-c3ccccc3)c2s1` [Example 238, N-ethyl-3-phenyl-1H-thieno[3,2-c]pyrazole-5-carboxamide], 3.47 µM.

For the molecule `Cc1cnc(-c2cc3[nH]nc(-c4ccc(F)cc4)c3s2)s1` [Example 247, 3-(4-fluorophenyl)-5-(5-methylthiazol-2-yl)-1H-thieno[3,2-c]pyrazole], on TNIK, the IC50 is greater than 20 µM. In turn, `COC(=O)c1cc2[nH]nc(-c3ccc(OCCN4CCOCC4)cc3)c2s1` [Example 249, methyl 3-(4-(2-morpholinoethoxy)phenyl)-1H-thieno[3,2-c]pyrazole-5-carboxylate] registered an IC50 at TNIK of 0.47 µM. Regarding `O=C(Nc1n[nH]c2ccc(C(=O)NC3(c4cccs4)CC3)cc12)c1ccc(N2CCOCC2)cc1` [Example 48, 3-(4-Morpholinobenzamido)-N-(1-(thiophen-2-yl)cyclopropyl)-1H-indazole-5-carboxamide], the IC50 on TBK1 came out at 0.0011 µM; against IKKε it was 0.0032 µM. For `CCCC(NC(=O)c1ccc2[nH]nc(NC(=O)c3ccc(F)cc3)c2c1)c1cccs1` (stereo not shown) [Example 18, 3-(4-Fluorobenzamido)-N-(1-(thiophen-2-yl)butyl)-1H-indazole-5-carboxamide], in that order: 0.21 µM and 1.23 µM. For `CCC(NC(=O)c1ccc2[nH]nc(NC(=O)c3ccc(N4CCN(C)CC4)cc3)c2c1)c1nccs1` (stereo not shown) [Example 84, 3-(4-(4-Methylpiperazin-1-yl)benzamido)-N-(1-(thiazol-2-yl)propyl)-1H-indazole-5-carboxamide], in that order: 0.016 µM and 0.069 µM. In the same order, the values of `CCC(C)(NC(=O)c1ccc2[nH]nc(NC(=O)c3ccc(N4CCN(C)CC4)cc3)c2c1)c1cccs1` (stereo not shown) [Example 131, 3-(4-(4-methylpiperazin-1-yl)benzamido)-N-(2-(thiophen-2-yl)butan-2-yl)-1H-indazole-5-carboxamide] are 0.03 µM and 0.14 µM. Consider `CN1CCN(c2ccc(C(=O)Nc3n[nH]c4ccc(C(=O)NC(C)(C)c5ccsc5)cc34)cc2)CC1` [Example 145, 3-(4-(4-methylpiperazin-1-yl)benzamido)-N-(2-(thiophen-3-yl)propan-2-yl)-1H-indazole-5-carboxamide], for which the IC50 came out at 0.012 µM against TBK1 and 0.033 µM on IKKε.

On to `CN1CCN(c2ccc(C(=O)Nc3n[nH]c4ccc(C(=O)NCc5ccc(F)cc5)cc34)cc2)CC1` [Example 189, N-(4-Fluorobenzyl)-3-(4-(4-methylpiperazin-1-yl)benzamido)-1H-indazole-5-carboxamide], for which the IC50 was 0.019 µM at TBK1 and 0.13 µM on IKKε. `O=C(c1cc2[nH]nc(-c3ccc(N4CCOCC4)cc3)c2s1)N1CCCC1` [Example 248, (3-(4-morpholinophenyl)-1H-thieno[3,2-c]pyrazol-5-yl)(pyrrolidin-1-yl)methanone]: the IC50 against TNIK was 8.09 µM. As to `CN1CCN(c2ccc(C(=O)Nc3n[nH]c4ccc(C(=O)NC(c5ccccc5)C5CC5)cc34)cc2)CC1` (stereo not shown) [Example 197, N-(Cyclopropyl(phenyl)methyl)-3-(4-(4-methylpiperazin-1-yl)benzamido)-1H-indazole-5-carboxamide], the IC50 is 0.027 µM on TBK1 and 0.042 µM against IKKε. In the case of `O=C(Nc1n[nH]c2ccc(CNCc3cccs3)cc12)c1ccc(N2CCOCC2)cc1` [Example 123], the IC50 at TBK1 is 0.66 µM; against IKKε, 4.47 µM.

These data come from patent publication US10294207B2, “Pyrazole derivatives as TNIK, IKKϵ and TBK1 inhibitor and pharmaceutical composition comprising same” (GREEN CROSS CORPORATION, priority 2015, dated 2019).
